Assay results from article PMC11134350, “Substrate Promiscuity of Thermoplasma acidophilum Malic Enzyme for CO2 Fixation Reaction” (JACS Au, 2024).
Read-outs that look alike come from different tables or passages of the source.

System: T1, TaME (Thermoplasma acidophilum NADP+-malic enzyme)
T1 construct: dimer (from structural model); Asn304 and Thr46* named at active site
Assay: NADPH formation, oxidative decarboxylation, Michaelis-Menten
Type: biochemical
Conditions: NADP+ as cofactor, standard assay conditions in supplement section 1.3.1, read-out: Km(substrate)
Text: NADPH formation, oxidative decarboxylation, Michaelis-Menten on TaME (Thermoplasma acidophilum NADP+-malic enzyme)

Row | Km (0.05-1.0 mM malate) [µM] | Km (0.03-0.60 mM isocitrate) [µM] | SMILES
1 | 879 ± 149 | – | O=C(O)C[C@H](O)C(=O)O [1b, Malate]
2 | – | 23.7 ± 5.2 | O=C(O)C[C@H](C(=O)O)[C@@H](O)C(=O)O [2b, Isocitrate]
